Data published in paper PMC5053573, “Structure-Based Design of Tetrahydroisoquinoline-7-carboxamides as Selective Discoidin Domain Receptor 1 (DDR1) Inhibitors” (Journal of Medicinal Chemistry, 2016).

Columns and labels:
Assay in all cases: biochemical
Settings in all cases: read-out: %Ctrl @ 1000nM
[1] = molecular target: FLT3(D835Y) (Homo sapiens, UniProt P36888, D835Y)
[2] = molecular target: CAMK2A (Homo sapiens, UniProt Q9UQM7)
[3] = molecular target: CSNK2A1 (Homo sapiens, UniProt P68400)
[4] = molecular target: RIPK4 (Homo sapiens, UniProt P57078)
[5] = molecular target: RET(V804L) (Homo sapiens, UniProt P07949, V804L)
[6] = molecular target: GSK3B (Homo sapiens, UniProt P49841)
[7] = molecular target: EPHB1 (Homo sapiens, UniProt P54762)
[8] = molecular target: EPHA6 (Homo sapiens, UniProt Q9UF33)
[9] = molecular target: FGFR4 (Homo sapiens, UniProt P22455)
[10] = molecular target: T1, NDR1 (Homo sapiens, UniProt Q15208)
T1 construct: gene STK38

[11] = molecular target: EPHB3 (Homo sapiens, UniProt P54753)
[12] = molecular target: ABL1-nonphosphorylated (Homo sapiens, UniProt P00519)
[13] = molecular target: FLT3 (Homo sapiens, UniProt P36888)
[14] = molecular target: EPHA4 (Homo sapiens, UniProt P54764)
[15] = molecular target: MAK (Homo sapiens, UniProt P20794)
[16] = molecular target: ABL1(H396P)-nonphosphorylated (Homo sapiens, UniProt P00519, H396P)
[17] = molecular target: SYK (Homo sapiens, UniProt P43405)
[18] = molecular target: CSK (Homo sapiens, UniProt P41240)
[19] = molecular target: T2, IKK-alpha (Homo sapiens, UniProt O15111)
T2 construct: gene CHUK

[20] = molecular target: NEK1 (Homo sapiens, UniProt Q96PY6)
[21] = molecular target: T3, PIP5K2B (Homo sapiens, UniProt P78356)
T3 construct: gene PIP4K2B

[22] = molecular target: PLK3 (Homo sapiens, UniProt Q9H4B4)
[23] = molecular target: CDK3 (Homo sapiens, UniProt Q00526)
[24] = molecular target: ABL1(T315I)-phosphorylated (Homo sapiens, UniProt P00519, T315I)
[25] = molecular target: T4, ICK (Homo sapiens, UniProt Q9UPZ9)
T4 construct: gene CILK1

[26] = molecular target: FLT3(K663Q) (Homo sapiens, UniProt P36888, K663Q)
[27] = molecular target: PIK3CA (Homo sapiens, UniProt P42336)
[28] = molecular target: T5, ARK5 (Homo sapiens, UniProt O60285)
T5 construct: gene NUAK1

[29] = molecular target: T6, PCTK2 (Homo sapiens, UniProt Q00537)
T6 construct: gene CDK17

[30] = molecular target: CSNK1E (Homo sapiens, UniProt P49674)
[31] = molecular target: T7, ERK1 (Homo sapiens, UniProt P27361)
T7 construct: gene MAPK3

[32] = molecular target: NEK11 (Homo sapiens, UniProt Q8NG66)
[33] = molecular target: ABL2 (Homo sapiens, UniProt P42684)
[34] = molecular target: EPHB6 (Homo sapiens, UniProt O15197)
[35] = molecular target: T8, DCAMKL1 (Homo sapiens, UniProt O15075)
T8 construct: gene DCLK1

Sequence of ABL2 (P42684 whole entry): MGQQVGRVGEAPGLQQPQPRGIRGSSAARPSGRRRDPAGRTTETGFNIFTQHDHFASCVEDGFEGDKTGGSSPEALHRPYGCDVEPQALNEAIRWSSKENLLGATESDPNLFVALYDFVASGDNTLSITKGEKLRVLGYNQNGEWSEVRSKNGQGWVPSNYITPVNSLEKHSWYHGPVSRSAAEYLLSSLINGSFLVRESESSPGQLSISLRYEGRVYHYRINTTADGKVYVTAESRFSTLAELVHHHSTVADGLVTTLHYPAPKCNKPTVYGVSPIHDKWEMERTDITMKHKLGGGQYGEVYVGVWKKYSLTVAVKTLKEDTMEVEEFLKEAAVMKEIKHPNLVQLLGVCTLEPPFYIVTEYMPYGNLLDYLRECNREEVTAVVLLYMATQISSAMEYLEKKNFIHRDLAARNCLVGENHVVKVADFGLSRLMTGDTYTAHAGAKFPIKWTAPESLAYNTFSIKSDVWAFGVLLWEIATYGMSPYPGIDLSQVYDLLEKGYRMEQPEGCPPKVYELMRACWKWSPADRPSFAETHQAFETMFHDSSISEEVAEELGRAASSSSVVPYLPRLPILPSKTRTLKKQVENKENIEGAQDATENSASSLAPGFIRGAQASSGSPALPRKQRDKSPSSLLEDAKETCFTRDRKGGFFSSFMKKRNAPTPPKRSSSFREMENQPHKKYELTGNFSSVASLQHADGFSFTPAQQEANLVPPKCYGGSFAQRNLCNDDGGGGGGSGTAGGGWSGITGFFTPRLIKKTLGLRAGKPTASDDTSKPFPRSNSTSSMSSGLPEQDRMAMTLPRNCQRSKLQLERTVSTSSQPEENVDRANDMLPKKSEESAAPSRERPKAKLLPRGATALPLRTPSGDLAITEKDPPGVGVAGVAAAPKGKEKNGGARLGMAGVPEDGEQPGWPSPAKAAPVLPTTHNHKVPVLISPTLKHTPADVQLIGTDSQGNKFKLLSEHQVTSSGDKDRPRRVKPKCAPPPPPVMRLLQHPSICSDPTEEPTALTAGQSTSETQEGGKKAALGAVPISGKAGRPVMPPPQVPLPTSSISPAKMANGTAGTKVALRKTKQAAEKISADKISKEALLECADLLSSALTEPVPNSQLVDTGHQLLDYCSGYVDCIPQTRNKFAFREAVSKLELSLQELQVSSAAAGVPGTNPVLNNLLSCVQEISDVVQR
Sequence of CDK3 (Q00526 whole entry): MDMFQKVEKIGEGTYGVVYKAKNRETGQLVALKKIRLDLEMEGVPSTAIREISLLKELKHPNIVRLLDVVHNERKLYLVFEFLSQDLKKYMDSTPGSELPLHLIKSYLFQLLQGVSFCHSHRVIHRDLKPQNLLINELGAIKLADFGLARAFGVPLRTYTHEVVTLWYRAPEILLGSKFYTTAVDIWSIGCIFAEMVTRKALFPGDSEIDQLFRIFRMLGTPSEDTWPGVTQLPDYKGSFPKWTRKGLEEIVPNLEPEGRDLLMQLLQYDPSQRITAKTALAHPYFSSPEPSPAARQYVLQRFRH
Sequence of FGFR4 (P22455 whole entry): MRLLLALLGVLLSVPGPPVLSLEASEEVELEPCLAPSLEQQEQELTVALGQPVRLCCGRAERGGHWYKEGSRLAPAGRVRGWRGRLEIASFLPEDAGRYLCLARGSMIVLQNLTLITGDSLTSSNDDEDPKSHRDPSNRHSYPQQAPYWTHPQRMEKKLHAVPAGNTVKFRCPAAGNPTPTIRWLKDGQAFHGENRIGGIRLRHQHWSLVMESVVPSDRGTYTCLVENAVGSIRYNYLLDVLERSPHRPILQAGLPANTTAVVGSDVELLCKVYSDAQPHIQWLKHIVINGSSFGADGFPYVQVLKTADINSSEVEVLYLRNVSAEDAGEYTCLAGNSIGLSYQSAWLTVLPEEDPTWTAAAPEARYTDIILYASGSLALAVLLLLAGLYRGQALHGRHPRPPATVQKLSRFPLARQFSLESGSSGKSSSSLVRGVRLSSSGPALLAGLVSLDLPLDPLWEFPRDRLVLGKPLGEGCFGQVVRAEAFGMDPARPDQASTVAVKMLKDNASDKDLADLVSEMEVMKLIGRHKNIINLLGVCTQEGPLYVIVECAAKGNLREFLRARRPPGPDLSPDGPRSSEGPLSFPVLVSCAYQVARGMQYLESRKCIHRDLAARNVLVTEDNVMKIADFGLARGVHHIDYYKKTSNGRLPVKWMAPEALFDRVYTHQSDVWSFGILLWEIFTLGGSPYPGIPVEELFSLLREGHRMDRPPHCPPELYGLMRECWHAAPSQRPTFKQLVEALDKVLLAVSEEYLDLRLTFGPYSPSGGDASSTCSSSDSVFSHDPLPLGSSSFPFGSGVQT
Sequence of RET(V804L) (P07949 whole entry V804L): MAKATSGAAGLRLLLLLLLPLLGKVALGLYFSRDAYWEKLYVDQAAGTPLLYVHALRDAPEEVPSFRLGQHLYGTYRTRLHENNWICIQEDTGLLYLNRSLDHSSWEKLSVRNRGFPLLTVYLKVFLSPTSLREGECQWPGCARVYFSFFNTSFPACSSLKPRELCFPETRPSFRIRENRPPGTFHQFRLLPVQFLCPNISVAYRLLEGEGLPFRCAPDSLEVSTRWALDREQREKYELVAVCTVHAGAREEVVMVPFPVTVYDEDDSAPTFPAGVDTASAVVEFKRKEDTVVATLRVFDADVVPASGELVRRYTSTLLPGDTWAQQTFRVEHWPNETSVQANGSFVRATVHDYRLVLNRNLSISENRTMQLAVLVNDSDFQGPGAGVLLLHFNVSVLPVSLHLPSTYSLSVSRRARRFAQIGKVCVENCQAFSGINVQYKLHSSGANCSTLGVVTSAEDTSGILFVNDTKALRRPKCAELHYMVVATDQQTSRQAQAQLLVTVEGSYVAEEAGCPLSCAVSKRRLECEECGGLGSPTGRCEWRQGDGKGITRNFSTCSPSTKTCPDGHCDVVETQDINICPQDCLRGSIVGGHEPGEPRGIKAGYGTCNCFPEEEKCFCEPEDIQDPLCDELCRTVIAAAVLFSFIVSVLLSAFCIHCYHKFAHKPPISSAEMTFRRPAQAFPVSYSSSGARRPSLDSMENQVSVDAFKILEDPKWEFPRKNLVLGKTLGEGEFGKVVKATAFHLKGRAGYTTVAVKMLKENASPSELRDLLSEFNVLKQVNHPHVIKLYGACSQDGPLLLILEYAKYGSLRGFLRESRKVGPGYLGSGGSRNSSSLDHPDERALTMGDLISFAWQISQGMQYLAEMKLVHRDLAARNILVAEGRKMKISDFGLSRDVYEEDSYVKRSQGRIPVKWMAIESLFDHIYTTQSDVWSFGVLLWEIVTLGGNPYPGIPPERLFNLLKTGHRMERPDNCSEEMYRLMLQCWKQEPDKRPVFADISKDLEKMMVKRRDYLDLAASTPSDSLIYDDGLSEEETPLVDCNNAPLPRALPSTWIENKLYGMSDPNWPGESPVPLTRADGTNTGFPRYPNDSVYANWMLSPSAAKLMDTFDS
Sequence of EPHB6 (O15197 whole entry): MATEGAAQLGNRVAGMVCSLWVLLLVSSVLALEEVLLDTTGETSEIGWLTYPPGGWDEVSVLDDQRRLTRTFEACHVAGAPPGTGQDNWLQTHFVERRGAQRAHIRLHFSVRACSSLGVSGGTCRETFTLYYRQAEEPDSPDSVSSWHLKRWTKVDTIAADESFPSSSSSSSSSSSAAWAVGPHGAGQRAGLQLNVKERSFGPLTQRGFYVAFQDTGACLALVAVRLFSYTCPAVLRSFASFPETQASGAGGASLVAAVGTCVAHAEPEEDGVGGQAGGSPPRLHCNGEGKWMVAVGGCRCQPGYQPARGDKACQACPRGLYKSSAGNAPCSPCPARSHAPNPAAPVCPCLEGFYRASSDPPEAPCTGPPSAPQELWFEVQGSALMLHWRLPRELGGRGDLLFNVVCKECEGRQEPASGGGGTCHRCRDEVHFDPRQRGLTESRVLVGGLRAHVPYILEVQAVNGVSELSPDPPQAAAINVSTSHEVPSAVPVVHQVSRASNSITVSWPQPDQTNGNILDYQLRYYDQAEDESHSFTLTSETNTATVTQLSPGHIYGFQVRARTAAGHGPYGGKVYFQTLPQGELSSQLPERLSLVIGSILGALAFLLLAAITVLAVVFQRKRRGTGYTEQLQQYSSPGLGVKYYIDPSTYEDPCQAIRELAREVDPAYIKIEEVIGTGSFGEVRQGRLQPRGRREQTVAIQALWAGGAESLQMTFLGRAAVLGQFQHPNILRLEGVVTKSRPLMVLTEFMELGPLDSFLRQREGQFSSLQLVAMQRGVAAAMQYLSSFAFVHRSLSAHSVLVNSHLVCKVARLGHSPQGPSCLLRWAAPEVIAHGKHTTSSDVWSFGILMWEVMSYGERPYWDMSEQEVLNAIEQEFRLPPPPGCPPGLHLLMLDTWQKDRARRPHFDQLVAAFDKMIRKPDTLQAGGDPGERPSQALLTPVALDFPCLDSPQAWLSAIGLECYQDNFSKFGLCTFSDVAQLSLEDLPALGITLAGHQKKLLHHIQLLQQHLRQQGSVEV
T3 sequence (P78356 whole entry): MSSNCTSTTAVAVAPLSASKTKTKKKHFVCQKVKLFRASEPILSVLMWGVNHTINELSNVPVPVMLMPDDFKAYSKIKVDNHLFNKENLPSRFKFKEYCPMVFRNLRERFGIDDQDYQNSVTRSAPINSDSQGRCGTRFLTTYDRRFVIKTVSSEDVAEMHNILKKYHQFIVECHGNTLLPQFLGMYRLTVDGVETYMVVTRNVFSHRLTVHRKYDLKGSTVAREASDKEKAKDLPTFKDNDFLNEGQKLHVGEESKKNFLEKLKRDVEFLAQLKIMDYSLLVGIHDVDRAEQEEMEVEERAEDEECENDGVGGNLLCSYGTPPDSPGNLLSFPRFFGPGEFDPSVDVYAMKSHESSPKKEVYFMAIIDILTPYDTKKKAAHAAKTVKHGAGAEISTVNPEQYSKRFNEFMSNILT

Cc1cn(-c2cc(NC(=O)c3ccc4c(c3)CN(c3cncnc3)C[C@@H]4C)cc(C(F)(F)F)c2)cn1 [Compound 6j]
remaining activity at 1 µM [1]: 40% | remaining activity at 1 µM [2]: 97% | remaining activity at 1 µM [3]: 100% | remaining activity at 1 µM [4]: 100% | remaining activity at 1 µM [5]: 94% | remaining activity at 1 µM [6]: 94% | remaining activity at 1 µM [7]: 72% | remaining activity at 1 µM [8]: 58% | remaining activity at 1 µM [9]: 85% | remaining activity at 1 µM [10]: 98% | remaining activity at 1 µM [11]: 82% | remaining activity at 1 µM [12]: 13% | remaining activity at 1 µM [13]: 56% | remaining activity at 1 µM [14]: 77% | remaining activity at 1 µM [15]: 95% | remaining activity at 1 µM [16]: 47% | remaining activity at 1 µM [17]: 93% | remaining activity at 1 µM [18]: 92% | remaining activity at 1 µM [19]: 100% | remaining activity at 1 µM [20]: 100% | remaining activity at 1 µM [21]: 81% | remaining activity at 1 µM [22]: 100% | remaining activity at 1 µM [23]: 97% | remaining activity at 1 µM [24]: 97% | remaining activity at 1 µM [25]: 100% | remaining activity at 1 µM [26]: 62% | remaining activity at 1 µM [27]: 100% | remaining activity at 1 µM [28]: 82% | remaining activity at 1 µM [29]: 96% | remaining activity at 1 µM [30]: 86% | remaining activity at 1 µM [31]: 95% | remaining activity at 1 µM [32]: 87% | remaining activity at 1 µM [33]: 46% | remaining activity at 1 µM [34]: 100% | remaining activity at 1 µM [35]: 100%
